In ChEMBL document CHEMBL4393671, “Design of a Cyclin G Associated Kinase (GAK)/Epidermal Growth Factor Receptor (EGFR) Inhibitor Set to Interrogate the Relationship of EGFR and GAK in Chordoma” (J Med Chem, 2019):
pIC50, pKd: −log10 of the molar value.

What was measured:
cells [1] = format: functional, cell-based; settings: Homo sapiens, UCH1, 72 h
Description: Antiproliferative activity against human UCH1 cells measured after 72 hrs by alamar blue assay

cells [2] = format: functional, cell-based; settings: Homo sapiens, UCH2, 72 h
Description: Antiproliferative activity against human UCH2 cells measured after 72 hrs by alamar blue assay

[3] = target: Epidermal growth factor receptor (Homo sapiens, UniProt P00533);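 also: KINOMEscan competition binding with recombinant partial wild-type human EGFR (residues R669–V1011) produced in bacteria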
Epidermal growth factor receptor, sequence (P00533 whole entry, the tested form may be a part): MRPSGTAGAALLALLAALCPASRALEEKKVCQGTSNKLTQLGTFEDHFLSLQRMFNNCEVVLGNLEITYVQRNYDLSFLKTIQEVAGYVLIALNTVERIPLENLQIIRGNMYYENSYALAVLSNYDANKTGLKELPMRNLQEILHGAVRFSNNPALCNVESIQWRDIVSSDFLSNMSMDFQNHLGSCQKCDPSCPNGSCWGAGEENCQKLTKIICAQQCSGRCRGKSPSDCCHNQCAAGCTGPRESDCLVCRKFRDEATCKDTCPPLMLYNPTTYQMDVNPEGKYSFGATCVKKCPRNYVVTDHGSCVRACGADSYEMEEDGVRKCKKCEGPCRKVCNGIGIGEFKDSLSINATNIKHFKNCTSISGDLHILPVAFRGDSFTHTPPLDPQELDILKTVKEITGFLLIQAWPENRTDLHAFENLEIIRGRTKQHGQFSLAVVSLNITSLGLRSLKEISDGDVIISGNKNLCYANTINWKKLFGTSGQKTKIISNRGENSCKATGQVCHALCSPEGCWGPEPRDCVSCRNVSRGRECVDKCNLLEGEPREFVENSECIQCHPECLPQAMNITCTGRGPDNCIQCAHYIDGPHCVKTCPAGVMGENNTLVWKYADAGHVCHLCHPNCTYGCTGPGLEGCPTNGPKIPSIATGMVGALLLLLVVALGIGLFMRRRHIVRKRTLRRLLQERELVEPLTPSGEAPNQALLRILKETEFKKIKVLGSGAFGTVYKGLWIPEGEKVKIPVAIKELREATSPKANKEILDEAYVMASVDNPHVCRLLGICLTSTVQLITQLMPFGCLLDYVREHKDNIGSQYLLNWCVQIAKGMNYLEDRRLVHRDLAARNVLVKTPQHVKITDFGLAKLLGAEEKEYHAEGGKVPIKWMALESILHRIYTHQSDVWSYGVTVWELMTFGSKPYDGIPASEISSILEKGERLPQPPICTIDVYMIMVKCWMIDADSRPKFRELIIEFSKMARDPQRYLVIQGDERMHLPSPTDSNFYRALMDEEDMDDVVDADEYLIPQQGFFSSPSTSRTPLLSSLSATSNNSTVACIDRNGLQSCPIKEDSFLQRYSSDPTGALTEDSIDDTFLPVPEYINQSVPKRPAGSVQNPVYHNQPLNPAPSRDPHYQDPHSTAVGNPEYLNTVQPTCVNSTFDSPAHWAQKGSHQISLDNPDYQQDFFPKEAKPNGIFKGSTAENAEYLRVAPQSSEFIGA
Description: Binding affinity to wild-type human partial length EGFR (R669 to V1011 residues) expressed in bacterial expression system by Kinomescan method

Homo sapiens = species on record: Homo sapiens; assay: Selectivity ratio of Kd for wild-type human partial length EGFR (R669 to V1011 residues) expressed in bacterial expression system to kd for wild-type human partial length GAK (G13 to Y338 residues) expressed in bacterial expression system
[4] = target: Proto-oncogene tyrosine-protein kinase receptor Ret (Homo sapiens, UniProt P07949); assay: Binding affinity to wild-type human partial length RET (E713 to D1014 residues) expressed in bacterial expression system by Kinomescan method
Proto-oncogene tyrosine-protein kinase receptor Ret, sequence (P07949 whole entry, the tested form may be a part): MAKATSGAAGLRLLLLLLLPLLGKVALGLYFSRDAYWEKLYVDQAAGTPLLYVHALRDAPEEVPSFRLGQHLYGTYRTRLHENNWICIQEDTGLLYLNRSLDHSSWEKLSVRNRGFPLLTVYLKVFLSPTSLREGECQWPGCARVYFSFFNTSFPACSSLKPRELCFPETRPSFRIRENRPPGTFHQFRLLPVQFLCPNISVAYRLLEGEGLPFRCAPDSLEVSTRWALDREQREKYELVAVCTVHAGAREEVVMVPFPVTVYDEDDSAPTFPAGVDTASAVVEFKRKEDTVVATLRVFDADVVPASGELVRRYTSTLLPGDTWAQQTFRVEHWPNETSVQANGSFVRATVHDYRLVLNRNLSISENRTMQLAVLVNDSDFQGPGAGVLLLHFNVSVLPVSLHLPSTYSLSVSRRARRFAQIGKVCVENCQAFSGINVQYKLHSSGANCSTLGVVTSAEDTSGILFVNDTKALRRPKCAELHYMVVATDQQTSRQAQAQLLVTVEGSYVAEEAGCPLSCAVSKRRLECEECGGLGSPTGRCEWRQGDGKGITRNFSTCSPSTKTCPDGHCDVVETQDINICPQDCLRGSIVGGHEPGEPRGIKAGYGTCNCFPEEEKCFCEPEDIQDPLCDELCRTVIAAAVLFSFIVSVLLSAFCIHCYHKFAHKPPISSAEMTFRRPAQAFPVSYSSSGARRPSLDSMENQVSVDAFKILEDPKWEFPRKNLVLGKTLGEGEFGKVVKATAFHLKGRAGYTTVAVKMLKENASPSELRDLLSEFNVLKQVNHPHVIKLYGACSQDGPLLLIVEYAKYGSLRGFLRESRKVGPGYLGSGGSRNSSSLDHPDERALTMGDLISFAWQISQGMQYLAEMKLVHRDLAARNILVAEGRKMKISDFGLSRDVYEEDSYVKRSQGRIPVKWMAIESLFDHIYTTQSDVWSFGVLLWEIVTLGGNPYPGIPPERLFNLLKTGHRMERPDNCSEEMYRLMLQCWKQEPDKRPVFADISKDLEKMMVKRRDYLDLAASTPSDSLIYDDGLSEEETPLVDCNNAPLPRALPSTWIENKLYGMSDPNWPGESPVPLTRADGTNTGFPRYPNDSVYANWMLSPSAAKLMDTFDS

[5] = target: Tyrosine-protein kinase ABL2 (Homo sapiens, UniProt P42684); assay: Binding affinity to wild-type human ABL2 (A248 to G542 residues) expressed in bacterial expression system by Kinomescan method
Tyrosine-protein kinase ABL2, sequence (P42684 whole entry, the tested form may be a part): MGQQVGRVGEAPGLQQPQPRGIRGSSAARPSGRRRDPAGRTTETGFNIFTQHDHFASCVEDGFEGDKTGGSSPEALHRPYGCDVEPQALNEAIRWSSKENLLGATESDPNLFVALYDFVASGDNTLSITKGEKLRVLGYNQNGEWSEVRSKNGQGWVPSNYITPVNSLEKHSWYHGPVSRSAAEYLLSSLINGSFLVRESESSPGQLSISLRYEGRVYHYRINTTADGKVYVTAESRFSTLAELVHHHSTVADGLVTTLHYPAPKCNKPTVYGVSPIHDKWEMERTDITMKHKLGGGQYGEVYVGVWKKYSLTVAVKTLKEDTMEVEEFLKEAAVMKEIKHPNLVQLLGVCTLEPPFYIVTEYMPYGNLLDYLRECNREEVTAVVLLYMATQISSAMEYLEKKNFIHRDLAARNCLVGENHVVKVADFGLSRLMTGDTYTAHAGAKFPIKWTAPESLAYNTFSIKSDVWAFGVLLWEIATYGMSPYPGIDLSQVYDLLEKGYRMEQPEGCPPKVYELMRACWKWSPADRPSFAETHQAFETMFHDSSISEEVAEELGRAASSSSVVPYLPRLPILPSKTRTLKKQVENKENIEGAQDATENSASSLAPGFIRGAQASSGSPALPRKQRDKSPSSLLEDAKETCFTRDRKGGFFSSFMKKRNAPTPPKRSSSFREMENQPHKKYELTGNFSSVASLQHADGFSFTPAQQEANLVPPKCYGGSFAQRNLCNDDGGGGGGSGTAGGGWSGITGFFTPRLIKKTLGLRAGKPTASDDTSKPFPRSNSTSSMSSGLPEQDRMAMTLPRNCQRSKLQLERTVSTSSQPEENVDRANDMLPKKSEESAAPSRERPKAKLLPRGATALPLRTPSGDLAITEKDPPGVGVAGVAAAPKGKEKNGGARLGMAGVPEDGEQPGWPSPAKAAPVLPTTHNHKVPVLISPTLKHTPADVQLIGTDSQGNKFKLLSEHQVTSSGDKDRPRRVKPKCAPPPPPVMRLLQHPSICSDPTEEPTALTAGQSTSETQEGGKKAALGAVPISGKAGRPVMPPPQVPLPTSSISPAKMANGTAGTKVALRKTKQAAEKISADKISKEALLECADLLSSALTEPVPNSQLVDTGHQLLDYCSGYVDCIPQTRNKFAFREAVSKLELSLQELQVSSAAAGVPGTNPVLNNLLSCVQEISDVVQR

[6] = target: Serine/threonine-protein kinase SIK2 (Homo sapiens, UniProt Q9H0K1); assay: Binding affinity to wild-type human full length SIK2 (M1 to N926 residues) expressed in bacterial expression system by Kinomescan method
Serine/threonine-protein kinase SIK2, sequence (Q9H0K1 whole entry, the tested form may be a part): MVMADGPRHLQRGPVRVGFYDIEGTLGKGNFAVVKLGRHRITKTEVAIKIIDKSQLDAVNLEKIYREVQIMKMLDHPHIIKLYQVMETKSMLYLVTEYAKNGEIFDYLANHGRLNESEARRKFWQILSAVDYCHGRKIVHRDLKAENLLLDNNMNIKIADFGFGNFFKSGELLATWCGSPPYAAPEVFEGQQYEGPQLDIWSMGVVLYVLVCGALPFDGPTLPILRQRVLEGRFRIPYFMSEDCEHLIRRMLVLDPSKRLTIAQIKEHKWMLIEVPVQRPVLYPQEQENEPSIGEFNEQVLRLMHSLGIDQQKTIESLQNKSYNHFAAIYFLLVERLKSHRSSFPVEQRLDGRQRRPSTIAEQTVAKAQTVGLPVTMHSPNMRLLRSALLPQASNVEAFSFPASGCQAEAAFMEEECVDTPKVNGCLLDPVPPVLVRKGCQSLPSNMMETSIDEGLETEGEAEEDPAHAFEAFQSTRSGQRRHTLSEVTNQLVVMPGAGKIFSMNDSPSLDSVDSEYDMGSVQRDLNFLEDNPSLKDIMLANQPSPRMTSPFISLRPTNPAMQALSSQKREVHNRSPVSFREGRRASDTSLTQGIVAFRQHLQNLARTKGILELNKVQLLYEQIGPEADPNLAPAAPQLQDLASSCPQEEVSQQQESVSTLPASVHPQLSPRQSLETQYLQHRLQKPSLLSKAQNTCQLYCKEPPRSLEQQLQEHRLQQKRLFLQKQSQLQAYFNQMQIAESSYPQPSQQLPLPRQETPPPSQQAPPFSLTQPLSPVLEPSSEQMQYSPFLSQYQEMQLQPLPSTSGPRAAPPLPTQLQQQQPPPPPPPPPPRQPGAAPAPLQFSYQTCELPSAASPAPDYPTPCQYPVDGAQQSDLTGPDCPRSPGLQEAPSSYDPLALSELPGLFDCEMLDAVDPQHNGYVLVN

[7] = target: T1, Serine/threonine-protein kinase D2 (Homo sapiens, UniProt Q9BZL6); assay: Binding affinity to wild-type human partial length PRKD2 (A519 to E838 residues) expressed in bacterial expression system by Kinomescan method
T1 sequence (Q9BZL6 whole entry): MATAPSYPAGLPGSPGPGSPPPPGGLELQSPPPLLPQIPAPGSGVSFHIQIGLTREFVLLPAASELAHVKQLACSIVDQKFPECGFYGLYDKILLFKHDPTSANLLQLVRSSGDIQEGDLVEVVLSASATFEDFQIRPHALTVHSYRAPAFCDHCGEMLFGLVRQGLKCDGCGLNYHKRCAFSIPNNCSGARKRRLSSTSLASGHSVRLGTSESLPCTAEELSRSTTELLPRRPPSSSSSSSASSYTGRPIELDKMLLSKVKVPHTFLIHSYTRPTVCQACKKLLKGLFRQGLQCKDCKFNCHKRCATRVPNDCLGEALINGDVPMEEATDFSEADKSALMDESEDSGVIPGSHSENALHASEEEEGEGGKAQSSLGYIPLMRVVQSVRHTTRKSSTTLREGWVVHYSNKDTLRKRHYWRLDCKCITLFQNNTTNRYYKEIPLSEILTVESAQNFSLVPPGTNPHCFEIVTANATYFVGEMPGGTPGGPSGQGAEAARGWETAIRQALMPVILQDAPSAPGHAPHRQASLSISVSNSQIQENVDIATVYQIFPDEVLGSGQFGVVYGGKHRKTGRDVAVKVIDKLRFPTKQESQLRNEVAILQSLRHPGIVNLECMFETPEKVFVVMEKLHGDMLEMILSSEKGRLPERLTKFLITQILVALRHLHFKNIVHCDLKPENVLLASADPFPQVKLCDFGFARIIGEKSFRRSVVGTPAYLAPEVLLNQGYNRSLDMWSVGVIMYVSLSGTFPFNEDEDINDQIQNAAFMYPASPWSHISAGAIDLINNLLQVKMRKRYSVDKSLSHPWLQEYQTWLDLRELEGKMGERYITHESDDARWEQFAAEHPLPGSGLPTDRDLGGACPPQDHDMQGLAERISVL

Activated CDC42 kinase 1 = Activated CDC42 kinase 1 (Homo sapiens, UniProt Q07912); assay: Binding affinity to wild-type human partial length TNK2 (S159 to D474 residues) expressed in bacterial expression system by Kinomescan method
[8] = target: Tyrosine-protein kinase ABL1 (Homo sapiens, UniProt P00519); assay: Binding affinity to wild-type human ABL1 (S229 to K512 residues) expressed in mammalian expression system by Kinomescan method

COc1cccc(Nc2ncnn3ccc(CN4CC[C@@H](N)[C@H](O)C4)c23)c1 [BMS-690514]
pIC50 (cells [1]): 6.28
pIC50 (cells [2]): < 4.30
pKd [3]: 6.66
Selectivity ratio (Homo sapiens): > 700
pKd [4]: > 6.65
pKd [5]: > 6.65
pKd [6]: > 6.65
pKd [7]: > 6.65
pKd (Activated CDC42 kinase 1): > 6.65
pKd [8]: > 6.65
